Laboratory results: the supplement of paper PMC10307832

Assays:
Assay in all cases: relative viability (nuclei count vs DMSO), 5 days (fraction); higher = more cells survive
NCI-H661 = test system: NCI-H661
Method in brief: (§1)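 Cells from lung cancer lines were seeded into 1536-well plates and, one day later, dosed by pin tool. Treatments were either a single drug or a fixed dose of an anchor drug with five library-drug doses (not always all listed) in √10 steps. After 5 days, nuclei were stained in a one-step fixation (final 0.05% Triton X-100, 1% formaldehyde, 1 ug/ml Hoechst) and counted on 4× images, and relative viability is the treated-to-vehicle nuclei ratio, as the median of duplicate plates.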

SK-LU-1 = test system: SK-LU-1
Method in brief: as §1

NCI-H2405 = test system: NCI-H2405
Method in brief: as §1

NCI-H23 = test system: NCI-H23
Method in brief: as §1

NCI-H596 = test system: NCI-H596
Method in brief: as §1

HCC-827 = test system: HCC-827
Method in brief: as §1

EKVX = test system: EKVX
Method in brief: as §1

NCI-H650 = test system: NCI-H650
Method in brief: as §1

HOP-62 = test system: HOP-62
Method in brief: as §1

LOU-NH91 = test system: LOU-NH91
Method in brief: as §1

NCI-H3122 = test system: NCI-H3122
Method in brief: as §1

COR-L 105 = test system: COR-L 105
Method in brief: as §1

NCI-H1975 = test system: NCI-H1975
Method in brief: as §1

LCLC-103H = test system: LCLC-103H
Method in brief: as §1

HARA = test system: HARA
Method in brief: as §1

PC-3 [JPC-3] = test system: PC-3 [JPC-3]
Method in brief: as §1

NCI-H2126 = test system: NCI-H2126
Method in brief: as §1

NCI-H727 = test system: NCI-H727
Method in brief: as §1

H3255 = test system: H3255
Method in brief: as §1

NCI-H2228 = test system: NCI-H2228
Method in brief: as §1

201T = test system: 201T
Method in brief: as §1

`Cc1csc(=NC2CCCCC2)n1/N=C/c1ccc(O)c(O)c1O` [MIM1] + C[C@]1(O)C[C@@H](c2nc(-c3ccc4ccc(-c5ccccc5)nc4c3)c3c(N)nccn32)C1 [Linsitinib] (partner 1 µM) was tested, and the relative viability (NCI-H661; first compound 0.2 µM) was 0.575, the relative viability (NCI-H661; first compound 0.6325 µM) was 0.737 and the relative viability (NCI-H661; first compound 2 µM) was 0.547. It also gave a relative viability (NCI-H661; first compound 6.325 µM) of 0.449, a relative viability (NCI-H661; first compound 20 µM) of 0.255 and a relative viability (SK-LU-1; first compound 0.2 µM) of 1.12. It also gave a relative viability (SK-LU-1; first compound 0.6325 µM) of 1.26, a relative viability (SK-LU-1; first compound 2 µM) of 1.29 and a relative viability (SK-LU-1; first compound 6.325 µM) of 1.03. For the same molecule, the relative viability (SK-LU-1; first compound 20 µM) was 0.996, the relative viability (NCI-H2405; first compound 0.2 µM) was 0.906 and the relative viability (NCI-H2405; first compound 0.6325 µM) was 1.08. It also gave a relative viability (NCI-H2405; first compound 2 µM) of 0.946, a relative viability (NCI-H2405; first compound 6.325 µM) of 0.778 and a relative viability (NCI-H2405; first compound 20 µM) of 0.742. It also gave a relative viability (NCI-H23; first compound 0.2 µM) of 0.553, a relative viability (NCI-H23; first compound 2 µM) of 0.488 and a relative viability (NCI-H23; first compound 6.325 µM) of 0.58. It also gave a relative viability (NCI-H23; first compound 20 µM) of 0.215, a relative viability (NCI-H596; first compound 0.2 µM) of 0.989 and a relative viability (NCI-H596; first compound 0.6325 µM) of 0.989. The relative viability (NCI-H596; first compound 2 µM) was 0.991, the relative viability (NCI-H596; first compound 6.325 µM) was 0.857 and the relative viability (NCI-H596; first compound 20 µM) was 0.871. The relative viability (HCC-827; first compound 0.2 µM) was 0.955, the relative viability (HCC-827; first compound 0.6325 µM) was 0.971 and the relative viability (HCC-827; first compound 2 µM) was 0.959. The relative viability (HCC-827; first compound 6.325 µM) was 0.387, the relative viability (HCC-827; first compound 20 µM) was 0.741 and the relative viability (EKVX; first compound 0.2 µM) was 1.03. The relative viability (EKVX; first compound 0.6325 µM) was 0.867, the relative viability (EKVX; first compound 2 µM) was 0.958 and the relative viability (EKVX; first compound 6.325 µM) was 0.631. For the same molecule, the relative viability (EKVX; first compound 20 µM) was 0.667, the relative viability (NCI-H650; first compound 0.2 µM) was 0.964 and the relative viability (NCI-H650; first compound 0.6325 µM) was 0.843. For the same molecule, the relative viability (NCI-H650; first compound 2 µM) was 0.938, the relative viability (NCI-H650; first compound 6.325 µM) was 0.824 and the relative viability (NCI-H650; first compound 20 µM) was 0.234. For the same molecule, the relative viability (HOP-62; first compound 0.2 µM) was 0.977, the relative viability (HOP-62; first compound 0.6325 µM) was 1.04 and the relative viability (HOP-62; first compound 2 µM) was 0.905. For the same molecule, the relative viability (HOP-62; first compound 6.325 µM) was 0.658, the relative viability (HOP-62; first compound 20 µM) was 0.936 and the relative viability (LOU-NH91; first compound 0.2 µM) was 0.882. The relative viability (LOU-NH91; first compound 0.6325 µM) was 0.978, the relative viability (LOU-NH91; first compound 2 µM) was 0.728 and the relative viability (LOU-NH91; first compound 6.325 µM) was 0.851. It also gave a relative viability (LOU-NH91; first compound 20 µM) of 0.592, a relative viability (NCI-H3122; first compound 0.2 µM) of 0.959 and a relative viability (NCI-H3122; first compound 0.6325 µM) of 1.08. For the same molecule, the relative viability (NCI-H3122; first compound 2 µM) was 1.12, the relative viability (NCI-H3122; first compound 6.325 µM) was 0.926 and the relative viability (NCI-H3122; first compound 20 µM) was 0.396. For the same molecule, the relative viability (COR-L 105; first compound 0.2 µM) was 0.899, the relative viability (COR-L 105; first compound 0.6325 µM) was 1.04 and the relative viability (COR-L 105; first compound 2 µM) was 0.898. For the same molecule, the relative viability (COR-L 105; first compound 6.325 µM) was 0.962, the relative viability (COR-L 105; first compound 20 µM) was 0.796 and the relative viability (NCI-H1975; first compound 0.2 µM) was 0.869. The relative viability (NCI-H1975; first compound 0.6325 µM) was 1.12, the relative viability (NCI-H1975; first compound 2 µM) was 0.796 and the relative viability (NCI-H1975; first compound 6.325 µM) was 0.525. It also gave a relative viability (NCI-H1975; first compound 20 µM) of 0.546, a relative viability (LCLC-103H; first compound 0.2 µM) of 0.994 and a relative viability (LCLC-103H; first compound 0.6325 µM) of 1.08. For the same molecule, the relative viability (LCLC-103H; first compound 2 µM) was 1.22, the relative viability (LCLC-103H; first compound 6.325 µM) was 0.999 and the relative viability (LCLC-103H; first compound 20 µM) was 1.05. For the same molecule, the relative viability (HARA; first compound 0.2 µM) was 0.9, the relative viability (HARA; first compound 0.6325 µM) was 0.926 and the relative viability (HARA; first compound 2 µM) was 0.909. For the same molecule, the relative viability (HARA; first compound 6.325 µM) was 0.92, the relative viability (HARA; first compound 20 µM) was 0.187 and the relative viability (PC-3 [JPC-3]; first compound 0.2 µM) was 0.946. It also gave a relative viability (PC-3 [JPC-3]; first compound 0.6325 µM) of 0.952, a relative viability (PC-3 [JPC-3]; first compound 2 µM) of 1 and a relative viability (PC-3 [JPC-3]; first compound 6.325 µM) of 0.805. It also gave a relative viability (PC-3 [JPC-3]; first compound 20 µM) of 0.845, a relative viability (NCI-H2126; first compound 0.2 µM) of 0.715 and a relative viability (NCI-H2126; first compound 0.6325 µM) of 0.695. It also gave a relative viability (NCI-H2126; first compound 2 µM) of 0.744, a relative viability (NCI-H2126; first compound 6.325 µM) of 0.707 and a relative viability (NCI-H2126; first compound 20 µM) of 0.702. It also gave a relative viability (NCI-H727; first compound 0.2 µM) of 0.311, a relative viability (NCI-H727; first compound 0.6325 µM) of 0.284 and a relative viability (NCI-H727; first compound 2 µM) of 0.276. For the same molecule, the relative viability (NCI-H727; first compound 6.325 µM) was 0.278, the relative viability (NCI-H727; first compound 20 µM) was 0.266 and the relative viability (H3255; first compound 0.2 µM) was 0.901. The relative viability (H3255; first compound 0.6325 µM) was 0.918, the relative viability (H3255; first compound 2 µM) was 0.883 and the relative viability (H3255; first compound 6.325 µM) was 0.637. For the same molecule, the relative viability (H3255; first compound 20 µM) was 0.406, the relative viability (NCI-H2228; first compound 0.2 µM) was 0.752 and the relative viability (NCI-H2228; first compound 0.6325 µM) was 0.638. It also gave a relative viability (NCI-H2228; first compound 2 µM) of 0.877, a relative viability (NCI-H2228; first compound 6.325 µM) of 0.217 and a relative viability (NCI-H2228; first compound 20 µM) of 0.208. For the same molecule, the relative viability (201T; first compound 0.2 µM) was 1.02, the relative viability (201T; first compound 0.6325 µM) was 1.04 and the relative viability (201T; first compound 2 µM) was 1.04. For the same molecule, the relative viability (201T; first compound 6.325 µM) was 1.03 and the relative viability (201T; first compound 20 µM) was 1.25.
